Measurements published in PubChem BioAssay AID2060891 (Molecular Pharmacology Branch, DTP, NCI, 2025).

Tested on: K98450-129-R-PDC complex spheroid growth, percent test/control
Test: Anticancer human tumor K98450-129-R-PDC patient-derived colon adenocarcinoma cell line growth inhibition [RAS]
Settings: for IC50: curve of first compound; for viability, T/C: stronger effect = lower value
Summary of the method: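 Agents were tested in combination matrices in half-log decrements from a top concentration at or near clinical Cmax (10 microM if undetermined). Targets were multi-cell spheroids of tumour lines plus HUVEC and MSC stromal cells.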

[1] = second compound 0.000949 µM, first compound 0.0316 µM
[2] = second compound 0.000949 µM, first compound 0.1 µM
[3] = second compound 0.000949 µM, first compound 0.316 µM
[4] = second compound 0.000949 µM, first compound 1 µM
[5] = second compound 0.000949 µM, first compound 3.16 µM
[6] = second compound 0.000949 µM, first compound 10 µM
[7] = second compound 0.003 µM, first compound 0.0316 µM
[8] = second compound 0.003 µM, first compound 0.1 µM
[9] = second compound 0.003 µM, first compound 0.316 µM
[10] = second compound 0.003 µM, first compound 1 µM
[11] = second compound 0.003 µM, first compound 3.16 µM
[12] = second compound 0.003 µM, first compound 10 µM
[13] = second compound 0.00949 µM, first compound 0.0316 µM
[14] = second compound 0.00949 µM, first compound 0.1 µM
[15] = second compound 0.00949 µM, first compound 0.316 µM
[16] = second compound 0.00949 µM, first compound 1 µM
[17] = second compound 0.00949 µM, first compound 3.16 µM
[18] = second compound 0.00949 µM, first compound 10 µM
[19] = second compound 0.03 µM, first compound 0.0316 µM
[20] = second compound 0.03 µM, first compound 0.1 µM
[21] = second compound 0.03 µM, first compound 0.316 µM
[22] = second compound 0.03 µM, first compound 1 µM
[23] = second compound 0.03 µM, first compound 3.16 µM
[24] = second compound 0.03 µM, first compound 10 µM
[25] = second compound 0.0949 µM, first compound 0.0316 µM
[26] = second compound 0.0949 µM, first compound 0.1 µM
[27] = second compound 0.0949 µM, first compound 0.316 µM
[28] = second compound 0.0949 µM, first compound 1 µM
[29] = second compound 0.0949 µM, first compound 3.16 µM
[30] = second compound 0.0949 µM, first compound 10 µM
[31] = second compound 0.3 µM, first compound 0.0316 µM
[32] = second compound 0.3 µM, first compound 0.1 µM
[33] = second compound 0.3 µM, first compound 0.316 µM
[34] = second compound 0.3 µM, first compound 1 µM
[35] = second compound 0.3 µM, first compound 3.16 µM
[36] = second compound 0.3 µM, first compound 10 µM
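Further: spheroids exposed to agents for seven days before the viability readout.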
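Wherever viability, T/C is given: luminescence used as a proxy for viable cell amount.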

Question: What does the source list for CC(=O)OC12COC1CC(O)C1(C)C(=O)C(O)C3=C(C)C(OC(=O)C(O)C(NC(=O)OC(C)(C)C)c4ccccc4)CC(O)(C(OC(=O)c4ccccc4)C21)C3(C)C (stereo unspecified) + CCn1c(-c2cccnc2C(C)OC)c2c3cc(ccc31)N1CCOC(CC(NC(=O)C(C(C)C)N(C)C(=O)C3(F)CCN(C(=O)C#CC(C)(C)N(C)C)CC3)C(=O)N3CCCC(N3)C(=O)OCC(C)(C)C2)C1?
Answer: IC50 (second compound 0.000949 µM): 190 nM; IC50 (second compound 0.003 µM): 43.1 nM; IC50 (second compound 0.00949 µM): < 31.6 nM; IC50 (second compound 0.03 µM): < 31.6 nM; IC50 (second compound 0.0949 µM): < 31.6 nM; IC50 (second compound 0.3 µM): < 31.6 nM; viability, T/C [1]: 69.7%; viability, T/C [2]: 66.1%; viability, T/C [3]: 37.2%; viability, T/C [4]: 24.6%; viability, T/C [5]: 25.8%; viability, T/C [6]: 24.8%; viability, T/C [7]: 52.4%; viability, T/C [8]: 43.6%; viability, T/C [9]: 23.8%; viability, T/C [10]: 19.7%; viability, T/C [11]: 21.4%; viability, T/C [12]: 20.1%; viability, T/C [13]: 40.6%; viability, T/C [14]: 25.5%; viability, T/C [15]: 19.9%; viability, T/C [16]: 18.7%; viability, T/C [17]: 19.5%; viability, T/C [18]: 18.1%; viability, T/C [19]: 30.9%; viability, T/C [20]: 28.2%; viability, T/C [21]: 19.2%; viability, T/C [22]: 17.7%; viability, T/C [23]: 19.7%; viability, T/C [24]: 20.4%; viability, T/C [25]: 29.6%; viability, T/C [26]: 26.9%; viability, T/C [27]: 18.9%; viability, T/C [28]: 19%; viability, T/C [29]: 18.8%; viability, T/C [30]: 18.4%; viability, T/C [31]: 29.5%; viability, T/C [32]: 22.7%; viability, T/C [33]: 19.1%; viability, T/C [34]: 16.3%; viability, T/C [35]: 16.9%; viability, T/C [36]: 18.6%

Question: How did the IC50 (second compound 0.000949 µM) turn out when NC1c2ccccc2OC12CCN(c1cnc3c(N4CCCc5ncccc54)n[nH]c3n1)CC2 (stereo unspecified) + CCn1c(-c2cccnc2C(C)OC)c2c3cc(ccc31)N1CCOC(CC(NC(=O)C(C(C)C)N(C)C(=O)C3(F)CCN(C(=O)C#CC(C)(C)N(C)C)CC3)C(=O)N3CCCC(N3)C(=O)OCC(C)(C)C2)C1 was run?
Answer: < 31.6 nM

Question: What about the IC50 (second compound 0.003 µM) of the same compound?
Answer: < 31.6 nM

Question: And the IC50 (second compound 0.00949 µM)?
Answer: < 31.6 nM

Question: And the IC50 (second compound 0.03 µM)?
Answer: < 31.6 nM

Question: What about the IC50 (second compound 0.0949 µM) of the same compound?
Answer: < 31.6 nM

Question: What about the IC50 (second compound 0.3 µM) of the same compound?
Answer: < 31.6 nM

Question: What about the viability, T/C [1] of the same compound?
Answer: 44.8%

Question: What about the viability, T/C [2] of the same compound?
Answer: 23.5%

Question: And the viability, T/C [3]?
Answer: 11%

Question: And the viability, T/C [4]?
Answer: 7.16%

Question: And the viability, T/C [5]?
Answer: 6.94%

Question: And the viability, T/C [6]?
Answer: 8.73%

Question: What about the viability, T/C [7] of the same compound?
Answer: 21.5%

Question: What about the viability, T/C [8] of the same compound?
Answer: 12.4%

Question: And the viability, T/C [9]?
Answer: 7.71%

Question: What about the viability, T/C [10] of the same compound?
Answer: 6.76%

Question: What about the viability, T/C [11] of the same compound?
Answer: 6.52%

Question: What about the viability, T/C [12] of the same compound?
Answer: 7.13%

Question: What about the viability, T/C [13] of the same compound?
Answer: 15.6%

Question: And the viability, T/C [14]?
Answer: 9.32%

Question: What about the viability, T/C [15] of the same compound?
Answer: 7.2%

Question: What about the viability, T/C [16] of the same compound?
Answer: 6.45%

Question: What about the viability, T/C [17] of the same compound?
Answer: 6.54%

Question: What about the viability, T/C [18] of the same compound?
Answer: 7.85%

Question: What about the viability, T/C [19] of the same compound?
Answer: 12.8%

Question: And the viability, T/C [20]?
Answer: 9.35%

Question: And the viability, T/C [21]?
Answer: 7.81%

Question: What about the viability, T/C [22] of the same compound?
Answer: 6.41%

Question: What about the viability, T/C [23] of the same compound?
Answer: 6.04%

Question: And the viability, T/C [24]?
Answer: 6.71%

Question: What about the viability, T/C [25] of the same compound?
Answer: 11%

Question: What about the viability, T/C [26] of the same compound?
Answer: 8.32%

Question: What about the viability, T/C [27] of the same compound?
Answer: 6.62%

Question: What about the viability, T/C [28] of the same compound?
Answer: 6.26%

Question: And the viability, T/C [29]?
Answer: 5.17%

Question: And the viability, T/C [30]?
Answer: 7.13%

Question: And the viability, T/C [31]?
Answer: 9.99%

Question: What about the viability, T/C [32] of the same compound?
Answer: 6.92%

Question: And the viability, T/C [33]?
Answer: 6.83%

Question: And the viability, T/C [34]?
Answer: 6.04%

Question: What about the viability, T/C [35] of the same compound?
Answer: 5.35%

Question: What about the viability, T/C [36] of the same compound?
Answer: 6.26%

Question: For Nc1ccn(C2OC(CO)C(O)C2(F)F)c(=O)n1 (stereo unspecified) + CCn1c(-c2cccnc2C(C)OC)c2c3cc(ccc31)N1CCOC(CC(NC(=O)C(C(C)C)N(C)C(=O)C3(F)CCN(C(=O)C#CC(C)(C)N(C)C)CC3)C(=O)N3CCCC(N3)C(=O)OCC(C)(C)C2)C1, which IC50 (second compound 0.000949 µM) is on record?
Answer: 18.4 nM

Question: What about the IC50 (second compound 0.003 µM) of the same compound?
Answer: 9.33 nM

Question: What about the IC50 (second compound 0.00949 µM) of the same compound?
Answer: < 3.16 nM

Question: And the IC50 (second compound 0.03 µM)?
Answer: < 3.16 nM

Question: And the IC50 (second compound 0.0949 µM)?
Answer: < 3.16 nM

Question: What about the IC50 (second compound 0.3 µM) of the same compound?
Answer: < 3.16 nM

Question: And the viability, T/C (second compound 0.000949 µM, first compound 0.00316 µM)?
Answer: 73.8%

Question: What about the viability, T/C (second compound 0.000949 µM, first compound 0.01 µM) of the same compound?
Answer: 43%

Question: And the viability, T/C [1]?
Answer: 51.7%

Question: What about the viability, T/C [2] of the same compound?
Answer: 39.8%

Question: And the viability, T/C [3]?
Answer: 32.4%

Question: And the viability, T/C [4]?
Answer: 25.3%

Question: And the viability, T/C (second compound 0.003 µM, first compound 0.00316 µM)?
Answer: 65.6%

Question: What about the viability, T/C (second compound 0.003 µM, first compound 0.01 µM) of the same compound?
Answer: 43.6%

Question: What about the viability, T/C [7] of the same compound?
Answer: 42.4%

Question: What about the viability, T/C [8] of the same compound?
Answer: 26.9%

Question: And the viability, T/C [9]?
Answer: 24.5%

Question: What about the viability, T/C [10] of the same compound?
Answer: 17%

Question: And the viability, T/C (second compound 0.00949 µM, first compound 0.00316 µM)?
Answer: 49.1%

Question: What about the viability, T/C (second compound 0.00949 µM, first compound 0.01 µM) of the same compound?
Answer: 38.4%

Question: And the viability, T/C [13]?
Answer: 29.8%

Question: And the viability, T/C [14]?
Answer: 21.9%

Question: What about the viability, T/C [15] of the same compound?
Answer: 19.9%

Question: And the viability, T/C [16]?
Answer: 18.1%

Question: What about the viability, T/C (second compound 0.03 µM, first compound 0.00316 µM) of the same compound?
Answer: 39%

Question: And the viability, T/C (second compound 0.03 µM, first compound 0.01 µM)?
Answer: 34.8%

Question: What about the viability, T/C [19] of the same compound?
Answer: 26.4%

Question: And the viability, T/C [20]?
Answer: 20.7%

Question: What about the viability, T/C [21] of the same compound?
Answer: 20.6%

Question: And the viability, T/C [22]?
Answer: 17.3%

Question: And the viability, T/C (second compound 0.0949 µM, first compound 0.00316 µM)?
Answer: 32.4%

Question: And the viability, T/C (second compound 0.0949 µM, first compound 0.01 µM)?
Answer: 37.1%

Question: What about the viability, T/C [25] of the same compound?
Answer: 25.7%

Question: And the viability, T/C [26]?
Answer: 21.2%

Question: What about the viability, T/C [27] of the same compound?
Answer: 20.8%

Question: What about the viability, T/C [28] of the same compound?
Answer: 16.8%

Question: And the viability, T/C (second compound 0.3 µM, first compound 0.00316 µM)?
Answer: 33.5%

Question: What about the viability, T/C (second compound 0.3 µM, first compound 0.01 µM) of the same compound?
Answer: 32.1%

Question: And the viability, T/C [31]?
Answer: 26.6%

Question: And the viability, T/C [32]?
Answer: 19.1%

Question: And the viability, T/C [33]?
Answer: 19.5%

Question: What about the viability, T/C [34] of the same compound?
Answer: 15.6%
